Where no end group is shown, it is not given here.

For data set [1], the system named is HeLa S3 cells (endogenous KDEL receptor). Kind of data set: ER secretion assay (western blot of cells and media). Type of data set: cell-based, human. Conditions: for secretion of endogenous luminal ER chaperones (BiP, PDI, ERP44) caused by the exogenous signal variant: western blot, n = 3, compared with signals having leucine at −1, result in words; for ER retention of the mScarlet reporter (secretion to media): 24 hr expression, western blot of cell extracts and medium, n = 3, result in words. An excerpt:
To further explore if disturbing the water will disrupt the binding, the terminal leucine at the −1 position in the HDEL ligand was alchemically changed to phenylalanine or alanine (Figures 3E and 3F). Phenylalanine also stabilized the two waters in the binding pocket, resulting in a high unbinding free energy. Due to its small size, alanine, however, was unable to stabilize the water, resulting in lower binding free energy. To validate these calculations, we tested the impact of signal variants at the −1 position on both retrieval of the endogenous KDELR from the Golgi to the ER and ER retention of a reporter protein carrying the signal variant in a cellular assay. To measure the role of the −1 position on retrieval of the endogenous KDELR to the ER, cells were transfected with mScarlet-reporters carrying −1 alanine (H/KDEA) or phenylalanine (H/KDEF) variants of either the HDEL or KDEL retrieval signals (Figure 4A). […] Finally, the effect of −1 variant signals on KDELR retrieval of endogenous ER chaperones was also tested. […] This effect was reduced for HDEF or KDEF signals and lost entirely for HDEA or KDEA signals (Figures 4B and 4D).
Figure 4 The terminal amino acid modulates recognition of the ERS by the KDEL receptor (A) Endogenous KDEL receptor redistribution was measured in COS-7 cells in the absence (-ligand) or presence of H/KDEL/F/A (mScarlet-xDEx^sec). TGN46 was used as a Golgi marker. The scale bar is 10 μm. The mean differences for H/KDEL/F/A comparisons against the shared no-ligand control are shown as Cummings estimation plots. The individual data points for the fraction of KDEL receptor fluorescence in the Golgi are plotted on the upper axes. On the lower axes, mean differences are plotted as bootstrap sampling distributions. Each mean difference is depicted as a dot. Each 95% confidence interval is indicated by the ends of the vertical error bars. (B) Cells and media collected from HeLa S3 cells expressing the xDEx variants (mScarlet-K/HDEx^sec) indicated in the figure were western blotted for resident ER chaperons and KDEL receptor.*unspecific bands (C) K/HDEx secretion to media bar graph showing mean ± SEM (n = 3). (D) Bar graph of endogenous ER chaperones secreted after challenged with different retrieval signals as measured by western blot showing mean ± SEM (n = 3).
ER chaperone secretion assays were performed as described in Gerondopoulos et al.[11] Briefly HeLa S3 cells were transfected with mScarlet-ligand (+xDEL ligand) or pcDNA3.1 (− ligand), and allowed to express the respective proteins for 24 hr. The media were TCA precipitated and both cell and media were resuspended and boiled in SDS-PAGE sample buffer. All samples were analysed by Western blotting and signals on films were measured by densitometry in FIJI.[33] Data were plotted as bar graphs in GraphPad Prism.

Data set [2] has as its system human KDELR1-GFP D9N in COS-7 cells. Kind of data set: Retrieval assay (KDEL receptor redistribution Golgi to ER). Type of data set: cell-based. Conditions: KDELR-GFP D9N vs WT, mScarlet ligand. An excerpt:
Figure 6 Effect of the water on proton transfer between Asp9 and His12 (A) In the bound state, a proton could be transferred from the histidine (His12/H12) to the aspartate (Asp9/D9) through the crystallographic water. A similar proton transfer can also be made in the apo state. (B) In the apo and bound state, the free energy barrier for the proton transfer (the center of excess charge) from the histidine to aspartate is similar. A larger energy barrier is observed for the proton transfer from aspartate back to the histidine in the bound state. (C) WT, D9A and D9N-mutant KDEL receptors redistribution in COS-7 cells in the absence (-ligand) or presence of K/R/HDEL (mScarlet-xDEL^sec) ligand. TGN46 was used as a Golgi marker. […] (D) The fraction of wild-type and H12A, D9A, and D9N-mutant KDEL receptors localized to the Golgi was measured before (no ligand) and after challenge with different retrieval signals (K/R/HDEL) and is shown as Cummings estimation plots. […]
Retrieval assays were performed as described in Gerondopoulos et al.[11] […] The signal for the KDEL receptor (integrated pixel intensity) was measured in individual cells using FIJI[33] for the Golgi region defined by the TGN46 Golgi marker and for the entire cell in the presence (+) and absence (-) of ligand. The fraction of KDEL receptor in the Golgi apparatus was calculated by dividing the Golgi signal by the total cell signal. […]

Another data set deals with chicken KDELR. Conditions: cited from earlier work.
A further data set concerns the target TAEHDEL peptide. Particulars: cited from earlier work.
A further data set deals with TAEKDEL peptide. Particulars: cited from earlier work.
Data set [3] deals with T1, Gallus gallus (Gg) KDELR2 (Gallus gallus, UniProt Q5ZKX9).
T1 construct: GFP-His fusion (C); made in house; host or cells: Saccharomyces cerevisiae strain BY5460
T1 sequence (Q5ZKX9 1-212): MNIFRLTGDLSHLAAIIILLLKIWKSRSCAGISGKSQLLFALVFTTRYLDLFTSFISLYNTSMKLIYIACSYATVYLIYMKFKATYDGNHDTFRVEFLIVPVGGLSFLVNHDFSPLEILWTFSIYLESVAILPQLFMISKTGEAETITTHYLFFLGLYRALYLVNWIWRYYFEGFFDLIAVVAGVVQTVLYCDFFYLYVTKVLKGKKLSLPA
Kind of data set: Peptide binding assay, competition of 3H-labelled peptide (filter binding, scintillation counting). Particulars: competition of 3H-labelled peptide at 20 nM, 20 mM MES pH 5.4, 40 mM sodium chloride, 0.01% DDM 0.0005% CHS, 20°C, 10 min, mean, n = 3, read-out: affinity (mean IC50, Figure S3). The protocol:
Binding assays were performed as detailed in Bräuer, P. et al.[19] WT or mutant protein (5 μL) in 20 mM MES pH 5.4, 40 mM Sodium Chloride, 0.01% DDM 0.0005% CHS was incubated with 5 μL of 3H-TAEHDEL (Cambridge Research Biochemicals, UK) at 20 nM at 20°C for 10 min. Using a vacuum manifold, the reaction was then filtered through a 0.22 μm mixed cellulose ester filters (Millipore, USA). Filters were washed with 2 x 0.5 mL cold buffer. The amount of peptide remaining bound was measured using scintillation counting in Ultima Gold (Perkin Elmer). Experiments were performed at least three times, independently, to generate an overall mean and standard deviation (s.d).
Figure S3. Affinity of different cargo signals, related to Figure 5. Mean IC50 values calculated for the TAEHDEF and TAEHDEL peptides competing […] peptide. Error bars are standard deviation of the mean (n = 3).
(1 picture or pasted object on this page, not shown here)

Data set [4] concerns the target T2, human KDELR1-GFP D9N (human) (UniProt P24390).
T2 sequence: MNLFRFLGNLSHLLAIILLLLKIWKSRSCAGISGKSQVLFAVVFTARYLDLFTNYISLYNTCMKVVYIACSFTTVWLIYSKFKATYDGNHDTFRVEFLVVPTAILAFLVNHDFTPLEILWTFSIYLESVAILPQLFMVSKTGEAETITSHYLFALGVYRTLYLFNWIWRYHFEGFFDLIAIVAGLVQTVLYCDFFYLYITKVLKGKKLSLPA

As for “HDEA [HDEL ligand with terminal leucine changed to alanine (simulation)]”, in data set [1], the “secretion of endogenous luminal ER chaperones (BiP, PDI, ERP44) caused by the exogenous signal variant” value (from here on “secretion … by the exogenous signal variant”) is “lost entirely”.

Turning to “HDEF [HDEL ligand with terminal leucine changed to phenylalanine (simulation)]”, in data set [1], the “ER retention of the mScarlet reporter (secretion to media)” value is listed as “retained more efficiently than the alanine variants but less efficiently than when leucine is present” and the “secretion … by the exogenous signal variant” value is given as “reduced”.

Regarding HDEL, in data set [2], the “retrieval of cargo by the Asp9Asn receptor variant relative to WT” value was ~ 80 % WT levels. At chicken KDELR, the Kd is 0.24 µM.

Regarding “KDEA [KDEL ligand with alanine at the −1 position (simulation)]”, the “secretion … by the exogenous signal variant” value in data set [1] was “lost entirely”.

As to “KDEF^sec: hGHss-mScarlet-H. sapiens BiP639-654 L654F secreted reporter (GPPPTGEEDTAEKDEF; not fully specified (N-terminus))”, in data set [1], the “ER retention of the mScarlet reporter (secretion to media)” value was “retained more efficiently than the alanine variants but less efficiently than when leucine is present” and the “secretion … by the exogenous signal variant” value is “reduced”.

On to KDEL receptor (from UniProt Q5ZKX9), for which the Kd is 0.24 µM with TAEHDEL peptide and 1.94 µM in the data set with TAEKDEL peptide.

In the case of Lys-Asp-Glu-Leu [KDEL], the Kd at chicken KDELR is 1.94 µM.

In the case of “RDEL [RDEL variant of the retrieval signal peptide]”, the Kd on chicken KDELR is 2.71 µM.

For TAEHDEF [TAEHDEF], in data set [3], the IC50 came out at 23 µM.

In the case of TAEHDEL [TAEHDEL, reference compound], in data set [3], the IC50 was 18 µM.

Consider “TAEKDEL [ER-retrieval signal peptide with canonical KDEL, Cambridge peptides]”, for which, on chicken KDELR, the Kd was 1.94 µM.

“hGHss-mScarlet-H. sapiens BiP639-654 K651H (HDEL^SEC) (from UniProt P11021 639-654)” showed a ligand-induced redistribution of KDELR1-GFP from the Golgi in COS-7 cells (cell retrieval assay), HDEL ligand in data set [4] of 80 % WT levels.

The term Kd denotes a measure of binding affinity in units of concentration. Broadly, the IC50 is the midpoint of a concentration-inhibition curve.
